Patent US20070185193A1, “Huvastatin and its preparation and formulation comprising the huvastatin” (HUAIBEI HUIKE PHARMACEUTICAL, CO. LTD., priority 2003, published 2007)

How the values were obtained:
rats = assay: Animal test: blood lipid level and cholesterol in rats; type: in vivo; conditions: twice per day, 0.05 or 0.1 mg/dose/rat, blood samples after one week
Procedure: Compound 1, 2 or 3 prepared in examples 1-3 were administered to rats (10 rats in each group), respectively, twice per day, 0.05 mg/dose/rat or 0.1 mg/dose/rat. Blood samples were taken and analyzed after one week for blood lipid level and cholesterol.

physchem = conditions: pH 7.4

| Compound | blood lipid versus control group (rats) | logD (physchem) |
| --- | --- | --- |
| CCC(C)(C)C(=O)OC1CC(O)C=C2C=CC(C)C(CCC3CC(O)CC(=O)O3)C21 (stereo not drawn) [Compound 1, 2,2-Dimethylbutyricacid-3-hydroxy-8-[2-(4-hydroxy-6-oxo-tetrahydropyran-2-yl)-ethyl]-7-methyl-1,2,3,7,8,8a-hexahydronaphthalen-1-yl ester] | lower than that of the control group | 0.82 |
| CCC(C)(C)C(=O)OC1CC(O)C=C2C=CC(C)C(CCC3CC(CC(=O)O)OC(C)(C)O3)C21 (stereo not drawn) [Compound 3] | lower than that of the control group | – |
